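These data come from cells grown in 96-well plates and exposed to compound for 48 hours at five concentrations. GI50 is the concentration that inhibits growth by half.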 The source made the active and inactive calls. Rule as the data show it: active = GI50 up to about 1.1 µM and inactive = higher. Where only a bound is given, the exact number is not on record here.

Data on 9 compounds can be found in ChEMBL document CHEMBL1201862, “PubChem BioAssay data set” (2004).

Common to all, as to experiment: DTP human tumour cell line panel, 48 h
The test system of test [1] is 786-0.
Test [2] relates to A549.
For test [3], the system named is COLO 205.
The test system of test [4] is EKVX.
The subject of test [5] is HL-60.
In test [6] the test system is HOP-92.
The test system of test [7] is NCI-H522.
The test system of test [8] is OVCAR-8.
Test [9] deals with RPMI-8226.
Test [10] relates to SF-268.
Test [11] deals with SF-295.
Test [12] relates to SK-MEL-5.
For test [13], the system named is SN12C.
Test [14] has as its system SNB-19.
The subject of test [15] is TK-10.
Test [16] has as its system UACC-62.
In test [17] the test system is HCT-15.

Take `CCCCCCCCCCCCCC(=O)OCC1OC(=O)C(O)C1O` (centres undefined): the GI50 in test [1], in test [2], in test [3], in test [4], in [5] and in test [6] was > 100 µM (inactive) each time. The GI50 is > 100 µM (inactive) in test [7]; > 100 µM (inactive) in [8]; > 100 µM (inactive) in [9]; > 100 µM (inactive) in test [10]; 88.7 µM (inactive) in [11]; > 100 µM (inactive) in [12]. Besides, the GI50 in [13], in test [14], in test [15] and in [16] was > 100 µM (inactive) each time.

Take `CC(C)N(C(=O)C1(C)CC1)C(C)C`: the GI50 in test [1] is > 100 µM (inactive); in [2], > 100 µM (inactive); in [3], > 100 µM (inactive); in test [4] it was > 100 µM (inactive); in [17], above 100 µM; in test [5] it was > 100 µM (inactive). Besides, the GI50 in [6], in [7], in [8], in [9], in [10] and in test [11] was > 100 µM (inactive) throughout. For the same compound, the GI50 in test [12], in test [13], in test [14] and in test [16] was > 100 µM (inactive) throughout.

Take `Nc1nc(-c2ccccc2)cc(-c2cc(Cl)ccc2O)n1`: the GI50 was 55 µM (inactive) in [1]; 42.7 µM (inactive) in test [2]; > 100 µM (inactive) in [3]; 46.9 µM (inactive) in test [4]; above 100 µM in [17]; > 100 µM (inactive) in [5]. For the same compound, the GI50 in test [6] was > 100 µM (inactive); in test [7], 25.9 µM (inactive); in [8] it was 32.9 µM (inactive); in test [9], > 100 µM (inactive); in test [10] it was 49.4 µM (inactive); in test [11] it was 83.6 µM (inactive). In addition, the GI50 in test [13] was > 100 µM (inactive); in test [14], 53.8 µM (inactive); in [15], 54.2 µM (inactive); in [16], > 100 µM (inactive).

With `COc1ccc(/C=C(\Cl)c2ccc(OC)cc2)cc1`, the GI50 in test [1], in [2], in test [3], in test [4], in test [5] and in [6] was > 100 µM (inactive) each time. Also, the GI50 in [7], in test [8], in [9], in test [10], in test [12] and in test [13] was > 100 µM (inactive) in each case. The GI50 in test [14] is > 100 µM (inactive); in test [15], > 100 µM (inactive); in test [16], 38.8 µM (inactive).

For the compound `CCOc1ccc(/N=N/c2c(-c3ccccc3)nn(C(=O)CC(=O)Nc3cccc(C)c3)c2-c2ccccc2)cc1`, the GI50 is > 100 µM (inactive) in test [1]; > 100 µM (inactive) in [2]; > 100 µM (inactive) in test [3]; 38.1 µM (inactive) in [4]; > 100 µM (inactive) in test [5]; > 100 µM (inactive) in test [6]. The GI50 in test [7] is > 100 µM (inactive); in test [8], > 100 µM (inactive); in [9], 65.8 µM (inactive); in [10], 39 µM (inactive); in test [11], > 100 µM (inactive); in test [12], 90.2 µM (inactive). Also, the GI50 in test [13], in test [14], in test [15] and in test [16] was > 100 µM (inactive) throughout.

Regarding `CC1=C[C@H]2C[C@@]3(C)O[C@@H]([C@]4(C)CC[C@H]([C@@H](C)C(=O)O)OO4)CC3C(C)(C)[C@H]2CC1` (some centres undefined), the GI50 in [1] is 3.15 µM (inactive); in test [2], 1.88 µM (inactive); in test [3], 1.44 µM (inactive); in test [4], 1.87 µM (inactive); in [5], 0.114 µM (active); in test [6], 0.078 µM (active). Also, the concentration for 50% growth inhibition (GI50) in [7] was 0.331 µM (active); in test [8] it was 1.45 µM (inactive); in [10], 2.17 µM (inactive); in test [11] it was 2.01 µM (inactive); in test [13], 1.39 µM (inactive); in test [14], 1.79 µM (inactive). Besides, in test [15], the GI50 was 2.79 µM (inactive).

For the compound `C[N+]1=c2c3cccc4cccc(c(=O)n2CC1)c43`, the GI50 was 25.8 µM (inactive) in test [1]; 22.4 µM (inactive) in test [2]; 10.1 µM (inactive) in test [3]; 29.4 µM (inactive) in test [4]; 22 µM in test [17]; 20.9 µM (inactive) in test [5]. Moreover, the GI50 is 24.7 µM (inactive) in test [6]; 11.4 µM (inactive) in test [7]; 16.6 µM (inactive) in test [8]; 23.9 µM (inactive) in test [9]; 12.3 µM (inactive) in test [10]; 21.3 µM (inactive) in test [11]. For the same compound, the GI50 in [12] was 18.2 µM (inactive); in test [13], 18.1 µM (inactive); in test [15], 5.82 µM (inactive); in test [16], 17.5 µM (inactive).

Regarding `CC(=O)C1C(=O)NC(=O)C1=O` (centres undefined), the GI50 in test [1] was > 100 µM (inactive); in test [3], > 100 µM (inactive); in [4] it was > 100 µM (inactive); in [17], above 100 µM; in test [6], > 100 µM (inactive); in test [7] it was > 100 µM (inactive). Besides, the GI50 in [8], in [9], in test [10], in test [11], in test [12] and in test [13] was > 100 µM (inactive) in each case. The GI50 in test [14], in [15] and in test [16] was > 100 µM (inactive) throughout.

`CC(C)CN(CC(C)C)C(=O)C1CCCC[C@@H]1C(=O)O` (some centres undefined): the GI50 in test [1] is > 100 µM (inactive); in test [2] it was > 100 µM (inactive); in test [3], > 100 µM (inactive); in test [4], > 100 µM (inactive); in test [17] it was above 100 µM; in test [5], > 100 µM (inactive). Also, the GI50 in test [6], in test [7], in test [8], in test [9], in test [10] and in test [11] was > 100 µM (inactive) each time. The GI50 in test [12], in test [13], in [15] and in test [16] was > 100 µM (inactive) each time.

By GI50 is commonly meant the concentration at which growth is held to half of that of the control.
